A short description of the data set: Metabolic stability in human liver microsomes. To be noted: 0.25 μM test compound; for half-life at 0.25 μM: 2 mM NADPH, 37° C.; for CLint scaled at 0.25 μM: human liver microsomes. Type of data set: in vitro ADME. As to the method: Microsomal Assay: Human liver microsomes (20 mg/mL) were obtained from Xenotech, LLC (Lenexa, Kans.). β-nicotinamide adenine dinucleotide phosphate, reduced form (NADPH), magnesium chloride (MgCl2), and dimethyl sulfoxide (DMSO) were purchased from Sigma-Aldrich.
Determination of Metabolic Stability: 7.5 mM stock solutions of test compounds of structural formula (I) (e.g., of an embodiment or aspect of embodiment thereof described herein) or structural formula (II), or pharmaceutically acceptable salt thereof, were prepared in DMSO. The 7.5 mM stock solutions were diluted to 12.5-50 μM in acetonitrile (ACN). The 20 mg/mL human liver microsomes were diluted to 0.625 mg/mL in 0.1 M potassium phosphate buffer, pH 7.4, containing 3 mM MgCl2. The diluted microsomes were added to wells of a 96-well deep-well polypropylene plate in triplicate. A 10 μL aliquot of the 12.5-50 μM test compound was added to the microsomes and the mixture was pre-warmed for 10 minutes. Reactions were initiated by addition of pre-warmed NADPH solution. The final reaction volume was 0.5 mL and contained […] human liver microsomes, 0.25 μM test compound, and 2 mM NADPH in 0.1 M potassium phosphate buffer, pH 7.4, and 3 mM MgCl2. The reaction mixtures were incubated at 37° C., and 50 μL aliquots were removed at 0, 5, 10, 20, and 30 minutes and added to shallow-well 96-well plates which contain 50 μL of ice-cold ACN (acetonitrile) with internal standard to stop the reactions. The plates were stored at 4° C. for 20 minutes after which 100 μL of water was added to the wells of the plate before centrifugation to pellet precipitated proteins. Supernatants were transferred to another 96-well plate and analyzed for amounts of parent remaining by LC-MS/MS using an Applied Bio-systems API 4000 mass spectrometer. The same procedure was followed for the non-deuterated counterpart of the compound of Formula I and the positive control, 7-ethoxycoumarin (1 μM). Testing was done in triplicate.
Data analysis: The in vitro t1/2s for test compounds were calculated from the slopes of the linear regression of % parent remaining (ln) vs incubation time relationship.
k=−[slope of linear regression of % parent remaining (ln) vs incubation time]
The apparent intrinsic clearance was calculated using the following equation:
CLint(mL/min/kg)=(0.693/in vitro t1/2)(Incubation Volume/mg of microsomes)(45 mg microsomes/gram of liver)(20 gm of liver/kg b.w.)
Data analysis was performed using Microsoft Excel Software.
For orientation: Liver microsomes are a subcellular fraction often used to study metabolism.

The mark [1] stands for this setting: pH 7.4, EXP# 2506, 4.0 mg/mL human liver microsomes.
Setting [2] is: pH 7.4, EXP# 2506, apparent intrinsic clearance.
[3] abbreviates: pH 7.4, EXP# 2503, 4.0 mg/mL human liver microsomes.
The mark [4] stands for this setting: pH 7.4, EXP#2503, apparent intrinsic clearance.

From patent publication US20220106272A1 (Terran Biosciences, Inc., priority 2018, published 2022) come the findings set out here.

As for `[2H]C([2H])([2H])Oc1cccc([C@H](O)C2CCN(CCc3ccc(F)cc3)CC2)c1OC` [Compound 115, (R)-(1-(4-fluorophenethyl)piperidin-4-yl)(2-methoxy-3-(methoxy-d3)phenyl)methanol], the half-life – broadly, how long it takes for the measured level to halve – at 0.25 μM under setting [1] stood at 69.5 min. Further, the CLint scaled (commonly the capacity of the preparation to metabolise the compound, expressed as a volume cleared per time) at 0.25 μM under setting [2] is 2.3 mL/min/kg.

Compound `[2H]C([2H])([2H])Oc1c(OC)cccc1[C@H](O)C1CCN(CCc2ccc(F)cc2)CC1` [Compound 131, (R)-(1-(4-fluorophenethyl)piperidin-4-yl)(3-methoxy-2-(methoxy-d3)phenyl)methanol] returned a half-life at 0.25 μM under setting [1] of 71.3 min. Moreover, the CLint scaled at 0.25 μM under setting [2] was determined as 2.4 mL/min/kg.

On to `[2H]C([2H])([2H])Oc1cccc([C@H](O)C2CCN(CCc3ccc(F)cc3)CC2)c1OC([2H])([2H])[2H]` [Compound 147, (R)-(2,3-bis(methoxy-d3)phenyl)(1-(4-fluorophenethyl)piperidin-4-yl)methanol], for which, under setting [1], the half-life at 0.25 μM is 67.2 min. Further, the CLint scaled at 0.25 μM under setting [2] worked out at 2.3 mL/min/kg.

`[2H]C([2H])([2H])Oc1cccc([C@]([2H])(O)C2CCN(CCc3ccc(F)cc3)CC2)c1OC([2H])([2H])[2H]` [Compound 148, (R)-(2,3-bis(methoxy-d3)phenyl)(1-(4-fluorophenethyl)piperidin-4-yl)methan-d-ol] had a half-life at 0.25 μM under setting [1] of 71.2 min. Also, the CLint scaled at 0.25 μM under setting [2] is 2.2 mL/min/kg.

Compound `[2H]C([2H])([2H])Oc1cccc([C@H](O)C2CCN(C([2H])([2H])Cc3ccc(F)cc3)CC2)c1OC([2H])([2H])[2H]` [Compound 151, (R)-(2,3-bis(methoxy-d3)phenyl)(1-(2-(4-fluorophenyl)ethyl-1,1-d2)piperidin-4-yl)methanol] gave a half-life at 0.25 μM under setting [1] of 69.9 min. For the same compound, the intrinsic clearance (CLint scaled) at 0.25 μM under setting [2] worked out at 2.3 mL/min/kg.

`[2H]C([2H])([2H])Oc1cccc([C@H](O)C2CCN(C([2H])([2H])C([2H])([2H])c3ccc(F)cc3)CC2)c1OC([2H])([2H])[2H]` [Compound 159, (R)-(2,3-bis(methoxy-d3)phenyl)(1-(2-(4-fluorophenyl)ethyl-1,1,2,2-d4)piperidin-4-yl)methanol] returned a half-life at 0.25 μM under setting [1] of 84.9 min. Besides, under setting [2], the CLint scaled at 0.25 μM was found to be 1.9 mL/min/kg.

Turning to `[2H]C1([2H])N(CCc2ccc(F)cc2)C([2H])([2H])C([2H])([2H])C([2H])([C@@H](O)c2cccc(OC)c2OC)C1([2H])[2H]` [Compound 203, (R)-(2,3-dimethoxyphenyl)(1-(4-fluorophenethyl)piperidin-4-yl-2,2,3,3,4,5,5,6,6-d9)methanol], the half-life at 0.25 μM under setting [3] stood at 47.6 min. The CLint scaled at 0.25 μM under setting [4] stood at 3.4 mL/min/kg.

With `[2H]C([2H])(Cc1ccc(F)cc1)N1C([2H])([2H])C([2H])([2H])C([2H])([C@@H](O)c2cccc(OC)c2OC)C([2H])([2H])C1([2H])[2H]` [Compound 215, (R)-(2,3-dimethoxyphenyl)(1-(2-(4-fluorophenyl)ethyl-1,1-d2)piperidin-4-yl-2,2,3,3,4,5,5,6,6-d9)methanol], the half-life at 0.25 μM under setting [3] came out at 46.6 min. Besides, the CLint scaled at 0.25 μM under setting [4] was found to be 3.4 mL/min/kg.

For the compound `[2H]C([2H])([2H])Oc1cccc([C@H](O)C2([2H])C([2H])([2H])C([2H])([2H])N(CCc3ccc(F)cc3)C([2H])([2H])C2([2H])[2H])c1OC([2H])([2H])[2H]` [Compound 347, (R)-(2,3-bis(methoxy-d3)phenyl)(1-(4-fluorophenethyl)piperidin-4-yl-2,2,3,3,4,5,5,6,6-d9)methanol], under setting [3], the half-life at 0.25 μM was determined as 48.9 min. The CLint scaled at 0.25 μM under setting [4] was found to be 3.2 mL/min/kg.

On to `[2H]C([2H])([2H])Oc1cccc([C@H](O)C2([2H])C([2H])([2H])C([2H])([2H])N(C([2H])([2H])Cc3ccc(F)cc3)C([2H])([2H])C2([2H])[2H])c1OC([2H])([2H])[2H]` [Compound 359, (R)-(2,3-bis(methoxy-d3)phenyl)(1-(2-(4-fluorophenyl)ethyl-1,1-d2)piperidin-4-yl-2,2,3,3,4,5,5,6,6-d9)methanol], for which the half-life at 0.25 μM under setting [3] is 65.8 min. Further, the CLint scaled at 0.25 μM under setting [4] is 2.4 mL/min/kg.

On to `[2H]C([2H])([2H])Oc1cccc([C@H](O)C2([2H])C([2H])([2H])C([2H])([2H])N(C([2H])([2H])C([2H])([2H])c3ccc(F)cc3)C([2H])([2H])C2([2H])[2H])c1OC([2H])([2H])[2H]` [Compound 383, (R)-(2,3-bis(methoxy-d3)phenyl)(1-(2-(4-fluorophenyl)ethyl-1,1,2,2-d4)piperidin-4-yl-2,2,3,3,4,5,5,6,6-d9)methanol], for which the half-life at 0.25 μM under setting [3] is 74 min. The CLint scaled at 0.25 μM under setting [4] worked out at 2.3 mL/min/kg.

As for `COc1cccc([C@H](O)C2CCN(CCc3ccc(F)cc3)CC2)c1OC` [volinanserin, (R)-(+)-α-(2,3-dimethoxyphenyl)-1-[2-(4-fluorophenyl)ethyl]-4-piperidinemethanol, reference compound], the half-life at 0.25 μM runs as follows: under setting [3], 44.7 min; under setting [1], 48.5 min. For the same compound, the CLint scaled at 0.25 μM was determined as 3.5 mL/min/kg under setting [4] and 3.2 mL/min/kg under setting [2].
